From PMC7411887, “New Paracyclophanylthiazoles with Anti-Leukemia Activity: Design, Synthesis, Molecular Docking, and Mechanistic Studies” (Molecules, 2020)
Where “and” joins values, the source holds several entries; their conditions need not be identical. Identical values can stand only once.

Legend:
leukemia SR = assay: MTT antiproliferative assay; conditions: Homo sapiens, read-out: Cytotoxicity IC50 L.SR
β-tubulin = target: T1, β-tubulin (Homo sapiens, UniProt P07437); assay: Tubulin polymerization inhibition (ELISA for TUBb, SR cell line); type: cell-based; conditions: IC50 ± SEM
T1 construct: endogenous in cells; host or cells: leukemia SR cell line
Procedure: The in vitro kinetics of microtubule assembly was measured using an ELISA kit for TUBb (Cloud-Clone. Corp.) on the leukemia SR cell line. The compounds tested were 3a–f and colchicine. Briefly, growing cells from the SR cell line were trypsinized, counted, and seeded at the appropriate densities into 96-well microtiter plates.
4. Tubulin polymerization inhibitory activity […]
bind the biotin labeled antibody. […]
spectrophotometrically at a wavelength of 450 nm ± 10 nm. The decrease of color intensity was measured as a sign for tubulin inhibition. The results were calculated as the concentration of TUBb available for antibody reaction, and the percent inhibition of TUBb was calculated for each sample as a percent of control. In vitro kinetics of microtubule assembly was measured using ELISA kit for TUBb (Cloud-Clone. Corp.) on SR cell line. Briefly, growing cells from Leukemia SR cell lines were trypsinized, counted and seeded at the appropriate densities into 96-well microtiter plates. Cells then were incubated in a humidified atmosphere at oC for 24 h. The standards, the tested compounds, and the control colchicine were diluted to designated concentrations. On the 96-well microtiter plates standard or sample was added to each well in […] and incubated at oC for 2 h. The solution was aspirated, and […] of prepared detection reagent A was added to each well. Incubation was done at oC for 2 h. After washing […] of prepared Detection Reagent B was added and incubation was continued at oC for 30 min. Five washings were done, then […] of 3,30,5,50-tetramethylbenzidine (TMB) substrate solution was added and incubated at oC for 15-25 min. Stop solution was added in […].
Optical density (O.D.) was measured at 450 nm using micro-plate reader (Spectromax Plus 96 well plate spectrophotometer). […]
the treated cells compared to that of the untreated control cells.
5. Multidrug resistance Assay
Before adding to wells, equilibrate the SABC working solution and TMB substrate for at least 30 […]
When diluting samples and reagents, they must be mixed completely and evenly. It is recommended plotting a standard curve for each test.

HL-60(TB) = assay: NCI single-dose screen (SRB); type: cell-based; conditions: Homo sapiens; Leukemia HL-60(TB); 10^−5 M; read-out: Growth inhibition percentage
Procedure: The methodology of the NCI anticancer screening was described in detail elsewhere (http://www.dtp.nci.nih.gov). […] Tested compounds were added to the culture at a single concentration (10^−5 M) and the cultures were incubated for 48 h. End-point determinations were made with a protein binding dye, SRB. Results for each tested compound were reported as the percentage growth of the treated cells when compared to the untreated control cells. The percentage growth was evaluated spectrophotometrically versus controls not treated with test agents. All experiments were repeated three times (Table 1).
Briefly, the protocol was performed on 60 human tumor cell lines derived from different nine neoplastic diseases. […] If the results obtained met selection criteria, then the compound was tested again on all 60 cell lines in 5× 10-fold dilutions with the top dose being 10^−4 M or 150 μg/mL. Detailed methods are described in the Supplementary Materials related to this article. […]
on their site (http://www.dtp.nci.nih.gov). But briefly, the protocol performed at sixty human […]
National Cancer Institute, Bethesda, USA. If the results obtained meet selection criteria, then the […]
10-4 molar or 150 μg/mL. Detailed methods are described in supplementary material related to […]
2. MTT- Cytotoxicity assay method […]
should not exceed 10^6 cells/cm2. Each test should include a blank containing complete medium […]
salt solution without phenol red and serum. Add reconstituted MTT in an amount equal to 10% of the culture medium volume.

T1 sequence (P07437 whole entry): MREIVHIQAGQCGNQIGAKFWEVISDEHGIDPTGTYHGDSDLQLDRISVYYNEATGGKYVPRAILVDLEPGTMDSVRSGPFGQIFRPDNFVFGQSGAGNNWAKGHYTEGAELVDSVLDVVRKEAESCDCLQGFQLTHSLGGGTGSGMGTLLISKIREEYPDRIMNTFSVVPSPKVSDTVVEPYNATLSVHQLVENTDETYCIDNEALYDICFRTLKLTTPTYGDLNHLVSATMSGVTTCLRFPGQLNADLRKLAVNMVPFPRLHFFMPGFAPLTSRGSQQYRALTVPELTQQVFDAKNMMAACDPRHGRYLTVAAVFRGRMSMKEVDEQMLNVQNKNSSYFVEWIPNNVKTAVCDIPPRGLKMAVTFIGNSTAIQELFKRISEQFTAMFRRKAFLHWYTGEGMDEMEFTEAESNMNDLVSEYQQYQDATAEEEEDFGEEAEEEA
T1 sequence (P68363 whole entry partner): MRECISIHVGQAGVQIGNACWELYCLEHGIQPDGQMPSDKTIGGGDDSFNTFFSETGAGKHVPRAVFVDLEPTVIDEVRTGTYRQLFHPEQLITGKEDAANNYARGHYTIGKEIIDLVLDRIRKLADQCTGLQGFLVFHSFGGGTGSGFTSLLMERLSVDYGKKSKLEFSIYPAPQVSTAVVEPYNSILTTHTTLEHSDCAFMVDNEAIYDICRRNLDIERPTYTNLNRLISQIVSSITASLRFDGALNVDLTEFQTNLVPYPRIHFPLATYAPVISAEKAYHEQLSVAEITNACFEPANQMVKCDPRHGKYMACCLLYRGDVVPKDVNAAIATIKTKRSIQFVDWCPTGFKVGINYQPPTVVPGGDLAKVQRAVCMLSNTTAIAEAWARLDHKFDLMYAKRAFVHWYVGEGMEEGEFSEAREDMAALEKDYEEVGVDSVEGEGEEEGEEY

Row | SMILES | IC50 (leukemia SR) | IC50 (β-tubulin) | inhibition at 10 µM (HL-60(TB)) | melting point
1 | COc1cc2c(c(OC)c1OC)-c1ccc(OC)c(=O)cc1[C@@H](NC(C)=O)CC2 [Colchicine, colchicine, reference compound] | 1.81 ± 0.0701 µM |  |  | 
2 | COC(=O)C=C1SC(=NNC(=O)c2cc3ccc2CCc2ccc(cc2)CC3)N(c2ccccc2)C1=O [Compound 3a] | 1.11 ± 0.0685 µM | 4.97 ± 0.11 µM | 83.6% | 
3 | COC(=O)C=C1SC(=NNC(=O)c2cc3ccc2CCc2ccc(cc2)CC3)N(Cc2ccccc2)C1=O [Compound 3b] | 2.02 ± 0.0688 µM | 8.38 ± 0.18 µM | 105% | 175 to 177 °C
4 | COC(=O)C=C1SC(=Nc2cccnc2)N(NC(=O)c2cc3ccc2CCc2ccc(cc2)CC3)C1=O [Compound 3c, Methyl (E)-2-((E)-3-[2.2]paracyclophanyl)amido-4-oxo-2-(pyridin-3-ylimino)-thiazolidin-5-ylidene)acetate] | 4.84 ± 0.0843 µM | 8.38 µM and 8.28 µM | 48.6% | 262 to 264 °C (dec.)
5 | C=CCN1C(=O)C(=CC(=O)OC)SC1=NNC(=O)c1cc2ccc1CCc1ccc(cc1)CC2 [Compound 3d] | 22.06 ± 0.0679 µM | 14.8 ± 0.32 µM | 8.16% | 241 to 243 °C
6 | CCN1C(=O)C(=CC(=O)OC)SC1=NNC(=O)c1cc2ccc1CCc1ccc(cc1)CC2 [Compound 3e] | 5.04 ± 0.0791 µM | 6.61 ± 0.14 µM | 11.6% | 220 to 222 °C
7 | COC(=O)/C=C1/S/C(=N/NC(=O)c2cc3ccc2CCc2ccc(cc2)CC3)N(C2CC2)C1=O [Compound 3f] |  |  | 26.4% | 180 to 182 °C
